These compounds were tested against T1, Human NK1 Receptor (Homo sapiens, UniProt P25103) (assay: In Vitro Human NK1 Receptor Binding Assay ([125I]Bolton-Hunter substance P displacement, IM9 cells)). Conditions: Human lymphoma IM9 cells, [125I]Bolton-Hunter substance P (0.05-0.1 nM), 50 min at 21° C.; Table 1; read-out: NK1 binding IC50.
T1 construct: endogenous in cells; host or cells: Human lymphoma IM9 cells (whole cells)
Experimental: They have been evaluated in an NK1-receptor binding assay which is described below.
Human lymphoma IM9 cells were grown in RPMI 1640 culture medium supplemented with 10% fetal calf serum and 2 mM glutamine and maintained under an atmosphere of 5% CO2. Cells were passaged every 3-4 days by reseeding to a concentration of 4-8×10^6/40 ml per 175 cm^2 flask. Cells were harvested for experiments by centrifugation at 1000 g for 3 min. Pelleted cells were washed once by resuspension into assay buffer (50 mM Tris HCl pH 7.4, 3 mM MnCl2, 0.02% BSA, […] bacitracin, […] chymostatin, 2 mM phosphoramidon, […] leupeptin) and repeating the centrifugation step before resuspending at a concentration of 2.5×10^6 cells/mL assay buffer. Cells ([…]) were incubated with [^125I]Bolton-Hunter substance P (0.05-0.1 nM) in the presence and absence of varying concentrations of test compounds for 50 min at 21° C. Non-specific binding (10% of the total binding observed under these conditions) was defined by […] [Sar^9, Met(02)^11] substance P. Reactions were terminated by rapid filtration under vacuum onto GF\C filters presoaked in 0.2% PEI for 1-2 h, using a Brandel cell harvester. Filters were washed with 6×1 ml ice-cold Tris HCl (50 mM, pH 7.4) and radioactivity bound determined using a gamma couter. Results were analyzed using iterative curve fitting procedures in RS1 or Graphpad Inplot.

T1 sequence (P25103 whole entry): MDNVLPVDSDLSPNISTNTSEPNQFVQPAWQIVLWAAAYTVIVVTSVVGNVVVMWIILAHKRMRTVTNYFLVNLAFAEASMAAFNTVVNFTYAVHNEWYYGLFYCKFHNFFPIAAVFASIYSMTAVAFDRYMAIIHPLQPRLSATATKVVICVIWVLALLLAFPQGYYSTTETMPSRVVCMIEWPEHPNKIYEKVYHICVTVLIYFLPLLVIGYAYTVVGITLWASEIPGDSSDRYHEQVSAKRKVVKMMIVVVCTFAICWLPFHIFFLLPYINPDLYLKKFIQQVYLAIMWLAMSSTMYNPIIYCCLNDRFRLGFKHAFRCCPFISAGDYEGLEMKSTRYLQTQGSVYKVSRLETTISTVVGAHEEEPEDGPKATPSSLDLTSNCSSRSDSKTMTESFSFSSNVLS

| IC50 [nM] | Compound |
| --- | --- |
| 0.7 | C[C@H](NC(=O)[C@@H](Cc1c[nH]c2ccccc12)NCc1cc2ccccc2o1)c1ccccc1 (relative stereo) [Example 6, 2-[(Benzofuran-2-ylmethyl)-amino]-3-(1H-indol-3-yl)-N-(1-phenyl-ethyl)-propionamide, [R-(R*,S*)]] |
| 27 | Cc1cc(CN[C@H](Cc2c[nH]c3ccccc23)C(=O)N[C@@H](C)c2ccccc2)oc1C (relative stereo) [Example 8, 2-[(4,5-Dimethyl-furan-2-ylmethyl)-amino]-3-(1H-indol-3-yl)-N-(1-phenyl-ethyl)-propionamide, [R-(R*,S*)]] |
| 14 | C[C@H](NC(=O)[C@@H](Cc1c[nH]c2ccccc12)NCc1ccc(Cl)s1)c1ccccc1 (relative stereo) [Example 12, 2-[(5-Chloro-thiophen-2-ylmethyl)-amino]-3-(1H-indol-3-yl)-N-(1-phenyl-ethyl)-propionamide, [R(R*,S*)]] |
| 35 | C[C@H](NC(=O)[C@@H](Cc1c[nH]c2ccccc12)NCc1cccc(SC(F)(F)F)c1)c1ccccc1 (relative stereo) [Example 13, 3-(1H-Indol-3-yl)-N-(1-phenyl-ethyl)-2-(3-trifluoromethylsulfanyl-benzylamino)-propionamide, [R-(R*,S*)]] |
| 4.7 | C[C@H](NC(=O)[C@@H](Cc1c[nH]c2ccccc12)NCc1cccc(C#N)c1)c1ccccc1 (relative stereo) [Example 14, 2-(3-Cyano-benzylamino)-3-(1H-indol-3-yl)-N-(1-phenyl-ethyl)-propionamide, [R-(R*,S*)]] |
| > 10000 | C[C@H](NC(=O)[C@@H](Cc1c[nH]c2ccccc12)NCc1cccc([N+](=O)[O-])c1)c1ccccc1 (relative stereo) [Example 15, 3-(1H-Indol-3-yl)-2-(3-nitro-benzylamino)-N-(1-phenyl-ethyl)-propionamide, [R-(R*,S*)]] |

Same assay, conditions: Table 4; [125I]Bolton-Hunter substance P displacement, human IM9 cells; read-out: IC50 (nM) hNK1

| Compound | IC50 [nM] |
| --- | --- |
| 2-(2,3-Diphenyl-allylamino)-3-(1H-indol-3-yl)-2-methyl-N-(1-phenyl-ethyl)-propionamide [compound 338] | > 10000 |
| 2-(3-Benzo[1,3]dioxol-5-yl-allylamino)-3-(1H-indol-3-yl)-2-methyl-N-(1-phenyl-ethyl)-propionamide [compound 339] | 343 |
| 2-(4-Benzyloxy-benzylamino)-3-(1H-indol-3-yl)-2-methyl-N-(1-phenyl-ethyl)-propionamide [compound 341] | > 10000 |
| 2-(4-Chloro-3-sulfamoyl-benzylamino)-3-(1H-indol-3-yl)-2-methyl-N-(1-phenyl-ethyl)-propionamide [compound 336] | 4230 |
| 2-[3-(4-Benzyloxy-phenyl)-allylamino]-3-(1H-indol-3-yl)-2-methyl-N-(1-phenyl-ethyl)-propionamide [compound 340] | 4910 |
| 3-(1H-Indol-3-yl)-2-methyl-N-(1-phenyl-ethyl)-2-[4-(2-pyrrolidin-1-yl-ethoxy)-benzylamino]-propionamide [compound 335] | > 10000 |
| 3-(1H-Indol-3-yl)-2-methyl-N-(1-phenyl-ethyl)-2-[4-(4-phenyl-piperidin-1-yl)-benzylamino]-propionamide [compound 334] | > 10000 |
| 3-(1H-Indol-3-yl)-2-methyl-N-(1-phenyl-ethyl)-2-[(pyridin-4-ylmethyl)-amino]-propionamide [compound 313] | 50 |
| 3-(1H-Indol-3-yl)-2methyl-N-(1-phenyl-ethyl)-2-[(1-phenyl-1H-indol-2-ylmethyl)-amino]-propionamide [compound 333] | 3610 |
| 4-{[2-(1H-Indol-3-yl)-1-methyl-1-(1-phenyl-ethylcarbamoyl)-ethylamino]-methyl}-benzoic acid methyl ester [compound 337] | 1920 |

Same assay, conditions: Table 5; [125I]Bolton-Hunter substance P displacement, human IM9 cells; read-out: IC50 (nM) hNK1

| Compound | IC50 [nM] |
| --- | --- |
| 2-(2,3-Diphenyl-allylamino)-3-(1H-indol-3-yl)-2-methyl-N-(1-phenyl-ethyl)-propionamide [compound 338] | > 10000 |

Same assay, conditions: human NK1 receptor, IM9 cells, [125I]Bolton-Hunter substance P; read-out: IC50 (nM) hNK1

| Compound | IC50 [nM] |
| --- | --- |
| 2-[(Benzofuran-2-ylmethyl)-amino]-N-(5-hydroxy-4-oxo-4H-pyran-2-ylmethyl)-3-(1H-indol-3-yl)-2-methyl-propionamide [compound 164] | > 10000 |

— patent US6472418B1, “Non-peptide NK1 receptors antagonists” (Warner-Lambert Company, priority 1998, dated 2002)
